Results: a compilation of properties of binary mixtures (doi:10.1021/je050387r)

Experiment: xn = mol fraction of the nth substance listed
Conditions: 101 kPa

O + CCCC[n+]1ccn(C)c1.F[B-](F)(F)F
x1 = 1
Conditions	viscosity [mPa·s]
303.15 K	0.8
308.15 K	0.72
313.15 K	0.65
318.15 K	0.6
323.15 K	0.55
343.15 K	0.4
353.15 K	0.35

CCCC[n+]1ccn(C)c1.F[B-](F)(F)F + O
viscosity [mPa·s]
Conditions	x2 = 0	x2 = 0.1002	x2 = 0.209	x2 = 0.2984	x2 = 0.4001	x2 = 0.5014	x2 = 0.6004	x2 = 0.7	x2 = 0.8	x2 = 0.8999
303.15 K	–	47.6	34.9	23.3	16.6	12	10	6.7	4.36	2.53
308.15 K	58.2	–	–	19.4	13.6	10.5	8.7	5.85	3.8	2.21
313.15 K	–	30.7	23.5	16.2	11.4	–	–	5.35	3.36	1.95
318.15 K	37.8	25.7	19.6	14.1	9.7	7.8	–	4.53	2.99	1.73
323.15 K	31.1	21.5	–	11.7	–	6.8	5.69	4.05	2.68	1.54
333.15 K	21.5	15.4	12	8.6	6.2	5.28	4.75	3.29	2.19	1.28
343.15 K	15.6	11.5	9	–	4.68	4.24	–	–	1.82	–
353.15 K	11.5	–	6.8	4.96	3.56	3.44	–	2.31	1.54	0.91
